Laboratory results taken from patent publication US11505592B2, “Diagnosis and therapy of multiple sclerosis” (PRINDEX S.R.L., priority 2015, dated 2022).

Columns and labels:
[1] = system: MS sera; assay: PEPSCAN-based ELISA, binding of MS sera to library peptides; parameters: species or system human; conditions: ELISA binding value, MS sera n = 9
From the text: (§1) The linear and CLIPS peptides are synthesized based on the amino acid sequence of the target protein using standard Fmoc-chemistry and deprotected using […] with scavengers. The constrained peptides are synthesized on chemical scaffolds in order to reconstruct conformational epitopes, using Chemically Linked Peptides on Scaffolds (CLIPS) technology (Timmerman et al. (2007). For example, the single looped peptides are synthesized containing a dicysteine, which was cyclized by treating with alpha, alpha′-dibromoxylene and the size of the loop is varied by introducing cysteine residues at variable spacing. If other cysteines besides the newly introduced cysteines are present, they are replaced by alanine. The side-chains of the multiple cysteines in the peptides are coupled to CLIPS templates by reacting onto credit-card format polypropylene PEPSCAN cards (455 peptide formats/card) with a 0.5 mM solution of CLIPS template such as 1,3-bis (bromomethyl) benzene in ammonium bicarbonate (20 mM, pH 7.9)/acetonitrile (1:1(v/v)). The cards are gently shaken in the solution for 30 to 60 minutes while completely covered in solution. Finally, the cards are washed extensively with excess of H2O and sonicated in distrupt-buffer containing 1 percent SDS/0.1 percent beta-mercaptoethanol in PBS (pH 7.2) at 70° C. for 30 minutes, followed by sonication in H2O for another 45 minutes.
(§2) The binding of antibody to each peptide is tested in a PEPSCAN-based ELISA. The 455-well credit card format polypropylene cards containing the covalently linked peptides are incubated with primary antibody solution for example consisting of 1/1000 diluted serum in blocking solution, for example 4% horse serum, 5% ovalbumin (w/v) in PBS/1% Tween. After washing, the peptides are incubated with a 1/1000 dilution of antibody peroxidase conjugate for one hour at 25° C. After washing, the peroxidase substrate 2,2′-azino-di-3-ethylbenzthiazoline sulfonate (ABTS) and 2 microlitres of 3 percent H2O2 are added. After one hour, the color development are measured. The color development are quantified with a charge coupled device (CCD)-camera and an image processing system (Slootstra et al., 1996).
(§3) The raw data are optical values obtained by a CCD-camera calibrated to export absorption values compatible with a standard 96-well plate ELISA-reader. First the CCD-camera makes a picture of the card before peroxidase coloring and then again a picture after the peroxidase coloring. These two pictures are substracted from each other yielding a binding value for each peptide.
(§4) All peptides have been synthesized in a peptide array format and the binding of 20 different sera to all peptide libraries were measured in an ELISA based set up following the procedure described in detail in the method section “Peptide synthesis and screening assays”. In particular 2 sets of experiments were performed on the 2 libraries by using 2 different dilutions of the human patients sera. In the first set of experiment the 20 sera were used at 1:2500 dilutions, while in the second experiment the dilution of the sera was 1:1000. The binding of the different sera to all peptides was quantified and analyzed in detail (Tables 1 and 2, FIGS. 15A, B, C, D and […]

[2] = system: CTRL sera; assay: PEPSCAN-based ELISA, binding of control (CTRL) sera to library peptides; parameters: species or system human; conditions: ELISA binding value, CTRLs n = 10
From the text: as §1, §2, §3, §4

Row | Sequence | MEAN MS ([1]; NOX2 library) | MEAN CTRL ([2]; NOX2 library) | MEAN MS ([1]; 5HT2A receptor library) | MEAN CTRL ([2]; 5HT2A receptor library)
1 | CNESYLNFARKAAKNPC [SEQ ID NO: 86] | 702.222 | 411.15 |  | 
2 | CNFARKRIKNC [SEQ ID NO: 60] | 748.389 | 374.6 |  | 
3 | CNFARKRIKNPEGGLYCGDRQNESYLNFARKRC [SEQ ID NO: 117] | 800.500 | 425.15 |  | 
4 | CNFARKRIKNPEGGLYCQNESYLNFARKRIKNC [SEQ ID NO: 65] | 801.056 | 410.85 |  | 
5 | CNFARKRIKNPEGGLYCSLAVHNITVSEQKISC [SEQ ID NO: 106] | 599.000 | 330.8 |  | 
6 | CNFARKRIKNPEGGLYCSYLNFARKRIKNPEGC [SEQ ID NO: 97] | 752.333 | 416.6 |  | 
7 | CNITVSEQKISAAGKIC [SEQ ID NO: 105] | 828.167 | 460.55 |  | 
8 | CNITVSEQKISEWGKICGDRQNESYLNFARKRC [SEQ ID NO: 144] | 816.722 | 446.7 |  | 
9 | CNITVSEQKISEWGKICQNESYLNFARKRIKNC [SEQ ID NO: 81] | 770.889 | 408.8 |  | 
10 | CNITVSEQKISEWGKICSYLNFARKRIKNPEGC [SEQ ID NO: 99] | 738.444 | 397.7 |  | 
11 | CNSDPYSVALSELGDRCITVSEQKISEWGKIKC [SEQ ID NO: 143] | 781.611 | 456.45 |  | 
12 | CNSDPYSVALSELGDRCVSEQKISEWGKIKESC [SEQ ID NO: 130] | 764.528 | 434.925 |  | 
13 | CNSLMQLNDDTRLYCLSSEGSLSPSSLSC [Peptide 6] |  |  | 418.89 | 249.55
14 | CNSLMQLNDDTRLYCMDILSEENTSLSSC [Peptide 1] |  |  | 445.78 | 252.10
15 | CNSLMQLNDDTRLYCYSNDFNSGEANTSC [Peptide 34] |  |  | 459.72 | 268.10
16 | CNSLMQLNDTRLYCSGEANTSDAFNWTC [Peptide 19] |  |  | 564.11 | 299.55
17 | CPYSVALSELGDRQNECITVSEQKISEWGKIKC [SEQ ID NO: 124] | 824.056 | 469.75 |  | 
18 | CQKISEWGKIKAAPIPC [SEQ ID NO: 153] | 710.778 | 402.15 |  | 
19 | CQKISEWGKIKESPIPCQNESYLNFARKRIKNC [SEQ ID NO: 69] | 855.111 | 458.3 |  | 
20 | CQKISEWGKIKESPIPCTVSEQKISEWGKIKEC [SEQ ID NO: 93] | 846.833 | 476.45 |  | 
21 | CQKISEWGKIKESPIPCVHNITVSEQKISEWGC [SEQ ID NO: 149] | 442.611 | 263.25 |  | 
22 | CQKISEWGKIKESPIPCVSEQKISEWGKIKESC [SEQ ID NO: 98] | 815.972 | 450.975 |  | 
23 | CQNESYLNFARKRIKNC [SEQ ID NO: 90] | 667.389 | 361.75 |  | 
24 | CQNESYLNFARKRIKNCNFARKRIKNPEGGLYC [SEQ ID NO: 150] | 697.056 | 392.3 |  | 
25 | CQNESYLNFARKRIKNCSYLNFARKRIKNPEGC [SEQ ID NO: 135] | 711.556 | 396.7 |  | 
26 | CQNESYLNFARKRIKNCVSEQKISEWGKIKESC [SEQ ID NO: 111] | 747.139 | 419.075 |  | 

Row | Sequence | MEAN MS ([1]; NOX2 library) | MEAN CTRL ([2]; NOX2 library) | MEAN MS ([1]; 5HT2A receptor library) | MEAN CTRL ([2]; 5HT2A receptor library)
27 | CQTAESLAVHNITVSECQNESYLNFARKRIKNC [SEQ ID NO: 100] | 697.667 | 367.45 |  | 
28 | CQTAESLAVHNITVSECVSEQKISEWGKIKESC [SEQ ID NO: 139] | 590.111 | 339.65 |  | 
29 | CRQNESYLNFARKRIKC [SEQ ID NO: 95] | 653.944 | 350.1 |  | 
30 | CRVNNSDPYSVALSELCQNESYLNFARKRIKNC [SEQ ID NO: 137] | 743.167 | 398.05 |  | 
31 | CRVNNSDPYSVALSELCVSEQKISEWGKIKESC [SEQ ID NO: 151] | 731.111 | 422.275 |  | 
32 | CSDAFNWTVDSENRCMDILSEENTSLSSC [Peptide 22] |  |  | 394.00 | 207.20
33 | CSELGDRQNESYLNFACQNESYLNFARKRIKNC [SEQ ID NO: 80] | 773.167 | 398.9 |  | 
34 | CSEQKISEWGKIKESPC [SEQ ID NO: 114] | 501.167 | 271.75 |  | 
35 | CSLSSTTNSLMQLNCMDILSEENTSLSSC [Peptide 18] |  |  | 323.72 | 188.90
36 | CSSLSLLHLQEKNWCMDILSEENTSLSSC [Peptide 45] |  |  | 318.17 | 198.50
37 | CSTTNSLMQLNDDTCMDILSEENTSLSSC [Peptide 11] |  |  | 321.28 | 186.85
38 | CSYLNFARKRIKNPEGCGDRQNESYLNFARKRC [SEQ ID NO: 125] | 786.389 | 430.35 |  | 
39 | CSYLNFARKRIKNPEGCITVSEQKISEWGKIKC [SEQ ID NO: 122] | 796.222 | 457.4 |  | 
40 | CSYLNFARKRIKNPEGCNFARKRIKNPEGGLYC [SEQ ID NO: 138] | 659.944 | 371.8 |  | 
41 | CSYLNFARKRIKNPEGCQNESYLNFARKRIKNC [SEQ ID NO: 61] | 778.278 | 398.9 |  | 
42 | CTRLYSNDFNSGEACKESSNEDVIGALLC [Peptide 42] |  |  | 561.03 | 333.60
43 | CTVDSENRTNLSSECMDILSEENTSLSSC [Peptide 13] |  |  | 300.11 | 160.80
44 | CTVDSENRTNLSSECRTNLSSEGSLSPSC [Peptide 25] |  |  | 507.22 | 296.95
45 | CVALSELGDRQNESYLCQNESYLNFARKRIKNC [SEQ ID NO: 110] | 761.778 | 406.75 |  | 
46 | CVFKEGSSLLADDNCKESSNEDVIGALLC [Peptide 38] |  |  | 594.61 | 348.13
47 | CVFKEGSSLLADDNCSDAFNWTVDSENRC [Peptide 47] |  |  | 399.89 | 244.50
48 | CVNARVNNSDPYSVALCTVSEQKISEWGKIKEC [SEQ ID NO: 154] | 799.667 | 455.6 |  | 
49 | CVNARVNNSDPYSVALCVSEQKISEWGKIKESC [SEQ ID NO: 128] | 772.583 | 436.575 |  | 
50 | CVRGQTAESLAVHNITCITVSEQKISEWGKIKC [SEQ ID NO: 134] | 758.278 | 440.5 |  | 
51 | CVRGQTAESLAVHNITCQNESYLNFARKRIKNC [SEQ ID NO: 66] | 824.500 | 438.35 |  | 
